Data as given in US11866720B2, “Transgenic or non-transgenic plants with mutated protoporphyrinogen oxidase having increased tolerance to herbicides” (priority 2013, dated 2024).
Where a chain is given by its changes, count along the chain named. Values joined by “and” are separate entries in the source; they are usually repeats but may differ in a detail not shown here. Equal values may be shown once.

Key:
Assay in all cases: biochemical
Settings in all cases: IC50 (M)
[1] = biological target: T1, recombinant wildtype and mutated PPO (Amaranthus PPO2: PPX2L_WC SEQ ID NO 2, PPX2L_AC SEQ ID NO 4, dG210 SEQ ID NO 6 & 8) (Amaranthus tuberculatus, UniProt Q0NZW9, D133A/F420I/R128Y)
T1 sequence (Q0NZW9 1-534 R128Y/D133A/F420I): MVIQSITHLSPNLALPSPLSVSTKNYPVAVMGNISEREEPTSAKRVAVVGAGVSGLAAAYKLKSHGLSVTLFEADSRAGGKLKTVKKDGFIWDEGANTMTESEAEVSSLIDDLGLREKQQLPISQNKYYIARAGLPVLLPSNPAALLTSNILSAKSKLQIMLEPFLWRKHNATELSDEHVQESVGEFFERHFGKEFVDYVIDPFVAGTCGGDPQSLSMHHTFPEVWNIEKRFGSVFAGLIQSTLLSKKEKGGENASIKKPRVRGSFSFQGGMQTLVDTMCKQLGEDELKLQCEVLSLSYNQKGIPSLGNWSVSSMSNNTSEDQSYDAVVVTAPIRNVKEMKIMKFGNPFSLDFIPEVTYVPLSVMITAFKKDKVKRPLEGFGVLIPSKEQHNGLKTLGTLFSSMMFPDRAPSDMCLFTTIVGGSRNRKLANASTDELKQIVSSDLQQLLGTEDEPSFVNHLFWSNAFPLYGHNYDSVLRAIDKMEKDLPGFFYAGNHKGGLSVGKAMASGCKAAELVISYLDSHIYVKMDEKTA

[2] = biological target: recombinant wildtype and mutated PPO (Amaranthus PPO2: PPX2L_WC SEQ ID NO 2, PPX2L_AC SEQ ID NO 4, dG210 SEQ ID NO 6 & 8) (Amaranthus tuberculatus, UniProt Q0NZW9, D133A/F420L/R128C)
[3] = biological target: recombinant wildtype and mutated PPO (Amaranthus PPO2: PPX2L_WC SEQ ID NO 2, PPX2L_AC SEQ ID NO 4, dG210 SEQ ID NO 6 & 8) (Amaranthus tuberculatus, UniProt Q0NZW9, D133A/F420M/R128V)
[4] = biological target: T2, recombinant wildtype and mutated PPO (Amaranthus PPO2: PPX2L_WC SEQ ID NO 2, PPX2L_AC SEQ ID NO 4, dG210 SEQ ID NO 6 & 8) (Amaranthus tuberculatus, UniProt Q0NZW9, D133A/F420M/R128Y)
T2 sequence (Q0NZW9 1-534 R128Y/D133A/F420M): T1 sequence (Q0NZW9 1-534 R128Y/D133A/F420I) with I420M

[5] = biological target: recombinant wildtype and mutated PPO (Amaranthus PPO2: PPX2L_WC SEQ ID NO 2, PPX2L_AC SEQ ID NO 4, dG210 SEQ ID NO 6 & 8) (Amaranthus tuberculatus, UniProt Q0NZW9, D133A/F420V/R128C)
[6] = biological target: T3, recombinant wildtype and mutated PPO (Amaranthus PPO2: PPX2L_WC SEQ ID NO 2, PPX2L_AC SEQ ID NO 4, dG210 SEQ ID NO 6 & 8) (Amaranthus tuberculatus, UniProt Q0NZW9, D133A/F420M/R128F)
T3 sequence (Q0NZW9 1-534 R128F/D133A/F420M): T1 sequence (Q0NZW9 1-534 R128Y/D133A/F420I) with Y128F, I420M

Chain of recombinant wildtype and mutated PPO (Amaranthus PPO2: PPX2L_WC SEQ ID NO 2, PPX2L_AC SEQ ID NO 4, dG210 SEQ ID NO 6 & 8) (Amaranthus tuberculatus, UniProt Q0NZW9, D133A/F420M/R128V) (Q0NZW9 1-534 R128V/D133A/F420M): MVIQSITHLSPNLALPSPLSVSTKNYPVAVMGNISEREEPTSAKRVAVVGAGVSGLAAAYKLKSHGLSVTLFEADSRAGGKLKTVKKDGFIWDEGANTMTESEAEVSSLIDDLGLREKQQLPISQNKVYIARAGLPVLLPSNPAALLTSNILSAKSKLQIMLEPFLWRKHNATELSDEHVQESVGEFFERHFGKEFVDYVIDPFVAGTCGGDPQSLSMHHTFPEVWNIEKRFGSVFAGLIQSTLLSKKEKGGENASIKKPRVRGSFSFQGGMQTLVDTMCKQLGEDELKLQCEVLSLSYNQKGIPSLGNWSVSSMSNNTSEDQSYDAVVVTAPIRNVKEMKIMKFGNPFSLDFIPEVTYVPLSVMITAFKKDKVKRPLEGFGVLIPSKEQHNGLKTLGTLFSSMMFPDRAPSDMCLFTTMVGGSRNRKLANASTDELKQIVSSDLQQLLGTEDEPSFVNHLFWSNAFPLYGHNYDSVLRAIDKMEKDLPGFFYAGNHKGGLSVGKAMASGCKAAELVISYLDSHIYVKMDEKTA
Chain of recombinant wildtype and mutated PPO (Amaranthus PPO2: PPX2L_WC SEQ ID NO 2, PPX2L_AC SEQ ID NO 4, dG210 SEQ ID NO 6 & 8) (Amaranthus tuberculatus, UniProt Q0NZW9, D133A/F420V/R128C) (Q0NZW9 1-534 R128C/D133A/F420V): as the sequence (Q0NZW9 1-534 R128V/D133A/F420M) above, with V128C, M420V counted along it
Chain of recombinant wildtype and mutated PPO (Amaranthus PPO2: PPX2L_WC SEQ ID NO 2, PPX2L_AC SEQ ID NO 4, dG210 SEQ ID NO 6 & 8) (Amaranthus tuberculatus, UniProt Q0NZW9, D133A/F420L/R128C) (Q0NZW9 1-534 R128C/D133A/F420L): as the sequence (Q0NZW9 1-534 R128V/D133A/F420M) above, with V128C, M420L counted along it

With `C#CCN1C(=O)C(F)(F)Oc2cc(F)c(N3C(=O)C4=C(CCCC4)C3=O)cc21` the IC50 [1] was ≥ 1e-05 M, the IC50 [2] was ≥ 1e-05 M and the IC50 [3] was 3.11e-06 M. The IC50 [4] was ≥ 1e-05 M and the IC50 [5] was 3.7e-06 M.

In the case of `COC(Oc1ccccc1Oc1cc(-n2c(=O)cc(C(F)(F)F)n(C)c2=O)c(F)cc1Cl)C(=O)OC1CCCCC1` (stereo not shown), the IC50 [1] is reported as 6.82e-07 M, the IC50 [6] is reported as 6.26e-08 M and the IC50 [3] is reported as 1.49e-08 M. The IC50 [5] was 1.01e-07 M.

In the case of `C#CCN1C(=O)C(F)(F)Oc2cc(F)c(-n3c(=O)cc(C(F)(F)F)n(C)c3=O)cc21`, the IC50 [1] is reported as 4.46e-07 M, the IC50 [2] is reported as 6.72e-08 M and the IC50 [3] is reported as 4.65e-08 M. For the same compound, the IC50 [4] was 1.13e-07 M and the IC50 [5] was 2.6e-08 M.

For `C#CCN1C(=O)COc2cc(F)c(N3C(=O)C4=C(CCCC4)C3=O)cc21` [Flumioxazin, flumioxazin], the IC50 [1] was ≥ 1e-05 M, the IC50 [2] was ≥ 1e-05 M and the IC50 [3] was ≥ 1e-05 M. For the same compound, the IC50 [4] was ≥ 1e-05 M and the IC50 [5] was 7.28e-06 M.

For `CS(=O)(=O)NC(=O)c1cc(Oc2ccc(C(F)(F)F)cc2Cl)ccc1[N+](=O)[O-]` [Fomesafen, fomesafen], the IC50 [1] was 2.15e-05 M, the IC50 [2] was ≥ 1e-05 M and the IC50 [3] was ≥ 1e-05 M. For the same compound, the IC50 [4] was ≥ 1e-05 M and the IC50 [5] was 2.36e-06 M.

`O=C(O)c1cc(Oc2ccc(C(F)(F)F)cc2Cl)ccc1[N+](=O)[O-]` [ACIFLUORFEN] was tested, and the IC50 [1] was ≥ 1e-05 M, the IC50 [2] was ≥ 1e-05 M and the IC50 [3] was ≥ 1e-05 M. The IC50 [4] was ≥ 1e-05 M and the IC50 [5] was 6.72e-06 M.

`CCOC(=O)COc1ncccc1Oc1cc(-n2c(=O)cc(C(F)(F)F)n(C)c2=O)c(F)cc1Cl` [A.13, ethyl [3-[2-chloro-4-fluoro-5-(1-methyl-6-trifluoromethyl-2,4-dioxo-1,2,3,4-tetrahydropyrimidin-3-yl)phenoxy]-2-pyridyloxy]acetate] showed an IC50 [1] of 4.64e-07 M, an IC50 [2] of 6.81e-07 M and an IC50 [3] of 3.58e-08 M. The IC50 [4] was 8.92e-08 M and the IC50 [5] was 1.24e-07 M.

`CCOc1cc(Oc2ccc(C(F)(F)F)cc2Cl)ccc1[N+](=O)[O-]` [OXIFLUORFEN] showed an IC50 [1] of 1.17e-06 M, an IC50 [2] of 1.49e-06 M and an IC50 [3] of 1.05e-06 M. For the same compound, the IC50 [4] was 1.13e-06 M and the IC50 [5] was 6.52e-08 M.

With `COC(=O)C(OC)Oc1ccccc1Oc1cc(-n2c(=O)cc(C(F)(F)F)n(C)c2=O)c(F)cc1Cl` (stereo not shown) the IC50 [1] was 2.86e-08 M, the IC50 [6] was 2.81e-09 M and the IC50 [3] was 1.49e-08 M. For the same compound, the IC50 [5] was 1.16e-08 M.

`CCOC(=O)C(Cl)Cc1cc(-n2nc(C)n(C(F)F)c2=O)c(F)cc1Cl` (stereo not shown) [CARFENTRAZONE-ETHYL] was tested, and the IC50 [1] was 2.82e-07 M, the IC50 [2] was 3.08e-07 M and the IC50 [3] was 2.29e-08 M. The IC50 [4] was 8.52e-08 M and the IC50 [5] was 3.96e-07 M.

For `CCOC(=O)C(C)OC(=O)c1cc(Oc2ccc(C(F)(F)F)cc2Cl)ccc1[N+](=O)[O-]` (stereo not shown) [Lactofen, lactofen], the IC50 [1] was 4.8e-08 M, the IC50 [2] was 1.42e-07 M and the IC50 [3] was 9.41e-08 M. The IC50 [4] was 1.43e-07 M and the IC50 [5] was 1.5e-08 M.

With `C#CCN1C(=O)C(F)(F)Oc2cc(F)c(-n3c(=O)n(C)c(=S)n(C)c3=O)cc21` the IC50 [1] was 4.82e-07 M and 2.63e-06 M, the IC50 [2] was 1e-07 M and 1.83e-07 M and the IC50 [6] was 1.21e-07 M. For the same compound, the IC50 [3] was 6.5e-08 M and 4.86e-08 M, the IC50 [4] was 2.85e-07 M and 1.02e-07 M and the IC50 [5] was 1.66e-07 M and 2.66e-07 M.

`C=CCOC(=O)C(C)(C)OC(=O)c1cc(-n2c(=O)cc(C(F)(F)F)n(C)c2=O)ccc1Cl` [BUTAFENACIL] was tested, and the IC50 [1] was 5.47e-08 M, the IC50 [2] was 1.1e-07 M and the IC50 [3] was 1.05e-08 M. For the same compound, the IC50 [4] was 5.04e-08 M and the IC50 [5] was 6.69e-08 M.
